From patent US20120172306A1, “Use of HASF as a Protective Agent Against Ischemic Tissue Damage” (Duke University, priority 2009, published 2012)

Tests used:
[1] = test system: PKC, Raf, ERK 1/2, PDK1 phosphorylation in adult rat cardiomyocytes; assay: Western blot analysis of signaling protein phosphorylation (PKC/ERK pathway); type: cell-based; settings: 3 μM inhibitor 30 min, then 100 nM HASF 5-10 min
Procedure: FIG. 3A is a photograph of an electrophoretic gel. HASF activates the PKC pathway. A. Western blots analysis for various signaling proteins. Serum-starved adult rat cardiomyocytes were stimulated with 100 nM HASF recombinant protein for various time courses. Cell lysate was collected and the proteins were resolved by SDS-PAGE. Insulin from bovine pancreas was used as a positive control. min: minutes of treatment.
FIG. 3B is a photograph of an immunoblot. Serum-starved adult rat cardiomyocytes were pre-treated with 3 μM PKC inhibitors BIM, Gö6976, or Gö6983 for 30 minutes, then stimulated with 100 nM HASF recombinant protein for 5-10 min and cells were harvested. Total cell lysates were used to analyze the levels of ERK1/2 phosphorylation by western blot analysis.
FIG. 4A is a photograph of an immunoblot. Western blot analysis for PKC E and PKC delta phosphorylation on total cell lysates from serum-starved adult rat cardiomyocytes stimulated with 100 nM HASF recombinant protein at 5 and 30 min. HASF b1 and b2 represent different batches of recombinant protein. PMA was used as positive control.
FIG. 4B is a photograph of an immunoblot. Western blot analysis for ERK1/2 phosphorylation on total cell lysates from adult rat cardiomyocytes pre-treated with 10 pM PKC epsilon translocation inhibitor peptide for 20 min, then 100 nM HASF recombinant protein was added for 5 min or 10 min.
FIGS. 8A-B are photographs of immunoblots. Western blot analysis for PKC a/b and PKC theta phosphorylation on total cell lysates from serum-starved adult rat cardiomyocytes stimulated with 100 nM HASF recombinant protein for the indicated times. HASF batch 1 and 2 represent different batches of recombinant protein. PMA was used as positive control.
Rabbit polyclonal antibodies for phospho-pan PKC, phospho-ERK1/2, phospho-raf, phosphor-PDK1, total Akt were obtained from Cell Signaling Tech. Rabbit polyclonal antibody for phospho-PKC epsilon, phospho-Bad, and GAPDH was obtained from Abeam. HRP-conjugated goat anti-rabbit secondary antibody was obtained from Cell Signaling Tech.

adult rat cardiomyocytes = assay: Caspase-Glo 9 and 3/7 assays of H2O2 induced apoptosis; type: cell-based; settings: 3 μM inhibitor 30 min, 100 nM HASF 30 min, 200 μM H2O2 3 hours
Procedure: FIGS. 2B and 2C are bar graphs showing relative caspase activity. Adult rat cardiomyocytes were freshly isolated and treated ±10 nM of HASF for 30 min, and then challenged with 100 μM of H2O2 for various time points. H2O2 induced apoptosis in cardiomyocytes was evidenced by the dynamic increase in the activities of the initiator Caspase 9 and effector Caspase […] at 5 h, 7 h and 9 h respectively. Y axis represent the relative amount of luminescence indicating the relative amount of active Caspase activities. ** P<0.01 and *** P<0.001. Data are presented as means±standard deviation of triplicates.
FIG. 3C is a bar graph showing fold-change in caspase activity. Serum-starved adult rat cardiomyocytes were treated with 3 μM PKC inhibitors or vehicle DMSO for 30 minutes, then 100 nM HASF recombinant protein was added for 30 minutes followed by treatment with 200 μM H2O2 for 3 hours. Apoptosis was determined by detection of Caspase-9 activity using a homogeneous luminescent assay. All samples were measured in triplicates. *P<0.05 vs. non-HASF treated cells.
FIG. 4C is a bar graph showing relative caspase activity in adult cardiomyocytes. Apoptosis as determined by detection of Caspase-9 activity on adult rat cardiomyocytes pre-treated with 178 μM PKC translocation inhibitor peptide for 10 minutes and then with 100 nM of HASF for 30 minutes. Thereafter, cells were challenged with 200 μM H2O2 for 3 hours. All samples were measured in triplicates. *P <0.05 vs. non-HASF treated cells and the experiment was repeated multiple times.
Adult rat ventricular cardiomyocytes were isolated from 6 weeks old female Sprague-Dawley rat (Harlan World Headquarters, Indianapolis, Ill., USA) hearts by enzymatic digestion and were seeded in (6-well) plates or Delta T culture dishes (Bioptechs, Inc., Pa.) pre-coated with 1 μg/cm2 of laminin (Sigma) at 5×10^4/well and cultured overnight in serum-free M199 medium (Sigma), supplemented with 2 mM of L-carnitine, 5 mM of creatine, 5 mM of taurine, 0.2% of albumin, 100 U/ml of penicillin and 100 μg/ml of streptomycin. […]

CN(C)CCCn1cc(C2=C(c3c[nH]c4ccccc34)C(=O)NC2=O)c2ccccc21.Cl [BIM, Bisindolylmalemide Hydrochloride, reference compound]
effect of PKC inhibitor on HASF-mediated ERK1/2 phosphorylation [1]: abolished | effect of PKC inhibitor on protective effects of HASF (Caspase-9 activity) (adult rat cardiomyocytes): abolished the protective effects
